Experimental data taken from PubChem BioAssay (NCI).
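Exposure lasted 48 hours, with cells grown in 96-well plates and compounds tested at five concentrations. At the TGI there is no net growth.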

How the values were obtained:
Assay in all cases: inhibition of tumour cell growth, NCI panel, 48 h
[1] = test system: 786-0 renal
[2] = test system: A498 renal
[3] = test system: A549 NSCLC
[4] = test system: ACHN renal
[5] = test system: BT-549 breast
[6] = test system: CAKI-1 renal
[7] = test system: CCRF-CEM leukemia
[8] = test system: COLO 205 colon
[9] = test system: DU-145 prostate
[10] = test system: EKVX NSCLC
[11] = test system: HCC-2998 colon
[12] = test system: HCT-116 colon
[13] = test system: HCT-15 colon
[14] = test system: HL-60(TB) leukemia
[15] = test system: HOP-62 NSCLC
[16] = test system: HOP-92 NSCLC
[17] = test system: HS 578T breast
[18] = test system: HT29 colon
[19] = test system: IGROV1 ovarian
[20] = test system: K-562 leukemia
[21] = test system: KM12 colon
[22] = test system: LOX IMVI melanoma
[23] = test system: M14 melanoma
[24] = test system: MALME-3M melanoma
[25] = test system: MCF7 breast
[26] = test system: MDA-MB-231 breast
[27] = test system: MDA-MB-435
[28] = test system: MDA-N
[29] = test system: MOLT-4 leukemia
[30] = test system: NCI-H226 lung
[31] = test system: NCI-H23 lung
[32] = test system: NCI-H460 lung
[33] = test system: NCI-H522 lung
[34] = test system: NCI/ADR-RES ovarian
[35] = test system: OVCAR-3 ovarian
[36] = test system: OVCAR-4 ovarian
[37] = test system: OVCAR-5 ovarian
[38] = test system: OVCAR-8 ovarian
[39] = test system: PC-3 prostate
[40] = test system: RXF 393 renal
[41] = test system: SF-268 CNS
[42] = test system: SF-295 CNS
[43] = test system: SF-539 CNS
[44] = test system: SK-MEL-2 melanoma
[45] = test system: SK-MEL-28 melanoma
[46] = test system: SK-MEL-5 melanoma
[47] = test system: SK-OV-3 ovarian
[48] = test system: SN12C renal
[49] = test system: SNB-19 CNS
[50] = test system: SNB-75 CNS
[51] = test system: SW-620 colon
[52] = test system: T-47D breast
[53] = test system: TK-10 renal
[54] = test system: U251 CNS
[55] = test system: UACC-257 melanoma
[56] = test system: UACC-62 melanoma
[57] = test system: UO-31 renal

Measured: TGI

COc1ccc(C(NS(=O)(=O)c2ccc(C)cc2)c2c(C(CBr)OC)c3ccccc3n2S(=O)(=O)c2ccccc2)cc1OC (configuration not stated)
> 100 µM: [1] | [2] | [3] | [4] | [5] | [6] | [7] | [8] | [9] | [10] | [11] | [12] | [13] | [14] | [15] | [16] | [17] | [18] | [19] | [20] | [21] | [22] | [23] | [24] | [25] | [26] | [27] | [28] | [29] | [30] | [31] | [32] | [33] | [34] | [35] | [36] | [37] | [38] | [39] | [40] | [41] | [42] | [43] | [44] | [45] | [46] | [47] | [48] | [49] | [50] | [51] | [52] | [53] | [54] | [55] | [56] | [57]
